Series [1] has as its target T1, BTG-3 (Streptomyces cinnamoneus, UniProt Q8GR90).
T1 construct: Ca2+-independent; made as pre-pro-protein
T1 sequence (Q8GR90 86-416): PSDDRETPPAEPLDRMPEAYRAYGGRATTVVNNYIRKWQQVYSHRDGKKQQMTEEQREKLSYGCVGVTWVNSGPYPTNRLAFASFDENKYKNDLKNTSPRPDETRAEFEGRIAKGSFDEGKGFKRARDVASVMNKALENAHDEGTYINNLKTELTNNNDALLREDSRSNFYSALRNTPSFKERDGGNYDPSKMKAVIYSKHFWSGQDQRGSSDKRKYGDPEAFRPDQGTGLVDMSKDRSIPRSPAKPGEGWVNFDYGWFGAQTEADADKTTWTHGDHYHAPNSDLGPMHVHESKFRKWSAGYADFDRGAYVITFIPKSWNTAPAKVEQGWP
In words: Substrate specificity: synthetic substrates with hydroxylamine. It counts as biochemical. The method, then: (§1) Measurement of the activity of BTGase is carried out by performing a reaction using benzyloxycarbonyl-L-glutaminyl glycine and hydroxylamine as substrates in the absence of Ca^2+, forming an iron complex with the resulting hydroxamic acid in the presence of trichloroacetic acid, measuring absorption at 525 nm and determining the amount of hydroxamic acid by a calibration curve to calculate the activity. The BTGase activity is measured by the method described below, unless otherwise indicated.
(§2) To 0.05 ml of an enzyme solution is added 0.5 ml of Reagent A and they are mixed with each other. After reacting at 37° C. for 30 minutes, Reagent B is added thereto to discontinue the reaction and form an Fe complex. Thereafter, absorbance is measured at 525 nm. […] Separately, a calibration curve is prepared using L-glutamic acid γ-monohydroxamio acid instead of the enzyme solution, and the amount of hydroxamic acid produced is determined by the difference in absorbance described above. An enzyme activity which produces 1 μmol of hydroxamic acid per 1 minute is defined as 1 unit.
(§3) Using each BTGase, reactions of various synthetic substrates with hydroxylamine were examined. […] In this case, the concentration of various synthetic substrates is 5 mM. In the table, CBZ, Gln, Gly and Asn are abbreviations for benzyloxycarbonyl group, glutaminyl group, glycyl group and asparaginyl group, respectively.

A further series concerns BTGase. Put plainly: Substrate specificity, statement on all BTGases. Particulars: substrate 5 mM, with hydroxylamine. The series is classed as biochemical, Streptoverticillium. The method, then: as §3
The target in series [2] is T2, BTG-2 (Streptomyces griseocarneus, UniProt A0ABX7RSJ1).
T2 construct: Ca2+-independent; made as pre-pro-protein
In words: Substrate specificity: synthetic substrates with hydroxylamine. It counts as biochemical, Streptoverticillium griseocarneum IFO 12776. The method, then: as §1, §2, §3

In series [3] the target is T3, MTGase (transglutaminase of guinea pig liver) (UniProt P08587).
T3 construct: from tissue; host or cells: guinea pig liver
T3 sequence (P08587 1-690): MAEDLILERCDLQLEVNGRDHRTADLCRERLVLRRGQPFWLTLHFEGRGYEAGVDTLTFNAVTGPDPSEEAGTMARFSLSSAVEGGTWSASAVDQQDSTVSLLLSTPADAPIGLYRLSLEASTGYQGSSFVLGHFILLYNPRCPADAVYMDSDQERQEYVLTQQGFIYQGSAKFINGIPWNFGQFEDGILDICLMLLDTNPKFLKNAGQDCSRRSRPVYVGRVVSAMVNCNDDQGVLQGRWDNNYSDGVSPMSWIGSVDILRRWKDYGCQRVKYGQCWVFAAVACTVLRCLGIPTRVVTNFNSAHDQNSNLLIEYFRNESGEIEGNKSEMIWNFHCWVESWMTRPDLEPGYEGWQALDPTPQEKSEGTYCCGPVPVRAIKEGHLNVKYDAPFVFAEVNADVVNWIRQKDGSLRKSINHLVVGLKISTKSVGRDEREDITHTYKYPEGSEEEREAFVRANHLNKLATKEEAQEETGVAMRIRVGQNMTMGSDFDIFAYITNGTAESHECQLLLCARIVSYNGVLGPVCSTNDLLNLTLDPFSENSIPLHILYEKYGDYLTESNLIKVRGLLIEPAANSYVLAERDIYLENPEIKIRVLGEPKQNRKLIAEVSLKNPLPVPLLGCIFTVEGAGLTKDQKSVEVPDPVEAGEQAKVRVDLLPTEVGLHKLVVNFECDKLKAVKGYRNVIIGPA
In words: Substrate specificity: synthetic substrates. It counts as biochemical. Particulars: Table 4. The method, then:
Next, properties of BTGases are compared to those of guinea pig liver-derived transglutaminase. The guinea pig liver-derived transglutaminase was prepared by the method described in Published Unexamined Japanese Patent Application No. 149645/83. As will be apparent from Tables 4 and 5, various differences in enzymological properties are noted between transglutaminase of guinea pig liver (hereafter referred to as MTGase) which has been mainly investigated heretofore and BTGases derived from actinomycetes; in particular, differences are noted in temperature stability, molecular weight, isoelectric point and substrate specificity. Further, a difference is noted in that the BTGases of the present invention act in the presence and absence of Ca^2+. Therefore, the respective enzymes of the present invention are different from MTGase in their properties.

Series [4] concerns the target T4, BTG-1 (Streptomyces mobaraensis, UniProt P81453).
T4 construct: BTGase is dissolved in the culture solution and can be harvested from the culture filtrate; endogenous in cells; host or cells: Streptoverticillium mobaraense IFO 13819 (natural producer; purified from culture filtrate)
T4 sequence (P81453 77-407): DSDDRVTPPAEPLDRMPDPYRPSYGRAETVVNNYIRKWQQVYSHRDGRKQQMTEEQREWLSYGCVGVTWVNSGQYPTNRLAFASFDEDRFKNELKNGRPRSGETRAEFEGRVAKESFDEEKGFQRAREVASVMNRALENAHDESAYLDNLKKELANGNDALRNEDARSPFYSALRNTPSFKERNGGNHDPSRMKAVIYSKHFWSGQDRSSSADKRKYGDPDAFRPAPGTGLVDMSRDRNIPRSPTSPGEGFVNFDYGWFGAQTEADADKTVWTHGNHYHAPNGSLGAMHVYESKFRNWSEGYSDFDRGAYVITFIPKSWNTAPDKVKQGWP
Put plainly: Substrate specificity: synthetic substrates with hydroxylamine. The series is classed as biochemical, Streptoverticillium mobaraense IFO 13819. The method, then: as §1, §2, §3

The target in series [5] is T4, BTG-1. Put plainly: Influence of metal ions on activity. It counts as biochemical, Streptoverticillium mobaraense IFO 13819. Conditions: metal ion 1 mM; None = 100; 30 min. On the procedure:
as §1, §2

Series [6] addresses T1, BTG-3. In words: Influence of metal ions on activity. It counts as biochemical. Conditions: metal ion 1 mM; None = 100; 30 min. The method, then:
as §1, §2

Series [7] deals with all BTGases. In words: Influence of metal ions, statement on all BTGases. Conditions: metal ion 1 mM. The series is classed as biochemical, Streptoverticillium. An excerpt:
In all BTGases, the activity is inhibited by Cu^2+ and Zn^2+.

Series [8] deals with T2, BTG-2. It counts as biochemical, Streptoverticillium griseocarneum IFO 12776. Conditions: metal ion 1 mM; None = 100; 30 min. The method, then:
as §1, §2

Series [9] has as its target T1, BTG-3. Put plainly: biochemical. Particulars: for inhibition at 1000 µM: read-out: BTG-3 (%) activity with inhibitor. The method, then:
as §1, §2

Series [10] addresses T4, BTG-1. Put plainly: biochemical. More on the design: species or system Streptoverticillium mobaraense IFO 13819. Particulars: for inhibition at 1000 µM: read-out: BTG-1 (%) activity with inhibitor. On the procedure:
as §1, §2

Series [11] has as its system all BTGases.
Series [12] concerns the target T2, BTG-2. In words: biochemical. Also noted: species or system Streptoverticillium griseocarneum IFO 12776. Conditions: for inhibition at 1000 µM: read-out: BTG-2 (%) activity with inhibitor. On the procedure:
as §1, §2

A short description of series [13]: Activity of the enzymes without added Ca2+. It counts as biochemical. Conditions: no CaCl2 added (Table 5). The method, then:
as §1

The nature of the next series: pH stability. It counts as physicochemical. Particulars: treatment at 37° C. for 10 minutes.
A short description of the next series: Temperature stability. It counts as physicochemical. Particulars: pH 7 for 10 minutes.
A further series is described as follows: Optimum pH. The series is classed as biochemical. Particulars: 37° C. for 10 minutes.
Setting [14] is: substrate 5 mM, with hydroxylamine.
[15] abbreviates: inhibitor 1 mM, 25° C. for 30 minutes, None = 100.
Setting [16] is: inhibitor 1 mM, 25° C. for 30 minutes.

Read-outs that look alike come from different tables or passages of the source. Residues, ends and D or L forms follow the SMILES beside them. *: point of attachment. Cbz = O=C(OCc1ccccc1)*

With `NC(=O)CC[C@H](NC(=O)OCc1ccccc1)C(=O)NCC(=O)O` [CBZ--Gln--Gly, benzyloxycarbonylglutaminyl glycine] (Cbz-Gln-Gly-OH), the “Substrate specificity (%) BTG-3” value at BTG-3 [1] (Table 4) is reported as 100%. Besides, at BTG-3 [1] (setting [14]), the “Reactivity of substrate with BTG-3 (relative, Table 1)” value worked out at 100. Also, in the series on BTGase, the “Reactivity of synthetic substrate with the BTGases (in words)” value is reported as “reactivity is the highest”. Besides, the “Substrate specificity (%) BTG-2” value on BTG-2 [2] (Table 4) came out at 100%. In addition, the “Reactivity of substrate with BTG-2 (relative, Table 1)” value at BTG-2 [2] (setting [14]) was 100. In addition, in series [3], the “Substrate specificity (%) MTGase” value is 100%. The “Substrate specificity (%) BTG-1” value at BTG-1 [4] (Table 4) is 100%. For the same molecule, the “Reactivity of substrate with BTG-1 (relative, Table 1)” value on BTG-1 [4] (setting [14]) came to 100.
For the molecule `[Cl][Cu][Cl]` [CuCl2], the “BTG-1 (%) activity with metal ion” value on BTG-1 [5] was 79%. For the same molecule, the “BTG-3 (%) activity with metal ion” value on BTG-3 [6] is recorded as 86%. Further, in the series with all BTGases [7], the “Effect of metal ion on activity of all BTGases (in words)” value was “inhibited”. In addition, the “BTG-2 (%) activity with metal ion” value on BTG-2 [8] is recorded as 82%.
For the molecule `O=C(O)CI` [Monoiodoacetic acid], the figures for the inhibition at 1000 µM on BTG-3 [9], at BTG-1 [10] and at BTG-2 [12] were 67%, 64% and 50%, respectively. Also, the “Effect of inhibitor on activity of all BTGases (in words)” value (shortened to “Effect of inhibitor”) with all BTGases [11] is recorded as “inhibited”.
As for `CCN1C(=O)C=CC1=O` [NEM, N-ethylmaleimide], the inhibition at 1000 µM on BTG-3 [9] (setting [15]) was found to be 3%; on BTG-1 [10] (setting [15]), 5%; on BTG-2 [12], 5%. Besides, the “Effect of inhibitor” value in the series with all BTGases [11] (setting [16]) is recorded as “inhibited”.
Take `O=C(O)c1cc[c]([Hg][Cl])cc1` [PCMB, p-chloromercury benzoic acid]: at BTG-3 [9] (setting [15]), the “BTG-3 (%) activity with inhibitor” value is given as 63%. In addition, the “BTG-1 (%) activity with inhibitor” value at BTG-1 [10] (setting [15]) turned out to be 54%. For the same molecule, in the series with all BTGases [11] (setting [16]), the “Effect of inhibitor” value is listed as “inhibited”. Further, at BTG-2 [12] (setting [15]), the “BTG-2 (%) activity with inhibitor” value stood at 61%.
As to `[Cl-].[Cl-].[Zn+2]` [ZnCl2], the “BTG-1 (%) activity with metal ion” value at BTG-1 [5] is 15%. Also, the “BTG-3 (%) activity with metal ion” value at BTG-3 [6] came to 24%. For the same molecule, the “Effect of metal ion on activity of all BTGases (in words)” value in the series with all BTGases [7] was “inhibited”. Also, on BTG-2 [8], the “BTG-2 (%) activity with metal ion” value was found to be 24%.

B1: BTG-1: transglutaminase of Streptoverticillium mobaraense IFO 13819 (protein, UniProt P81453 77-407, looked up)
Protein-glutamine …: T4 sequence (P81453 77-407)
As to B1, the “Activity (%) of the enzyme, metal ion: None” value in [13] came out at 99%. For the same molecule, in the series “pH stability”, the “pH Stability (stable pH range)” value is recorded as 5-9. The “Temperature stability (%), 40° C. residual rate” value in “Temperature stability” (40° C.) stood at 88%. The “Temperature stability (%), 50° C. residual rate” value in the series “Temperature stability” (50° C.) is recorded as 74%. The “Optimum pH” value in “Optimum pH” is 6-7.

Source of the values: patent publication US5156956A, “Transgultaminase” (Ajinomoto Co., Inc., priority 1987, dated 1992).
